According to patent US10214542B2, “Modified macrocyclic compounds” (BAYER PHARMA AKTIENGESELLSCHAFT, priority 2015, dated 2019):
Marks after values point to notes of the source that are not given here.

Experiments:
[1] = molecular target: T1, CDK9/CycT1 (Homo sapiens, UniProt P50750); experiment: CDK9/CycT1 high ATP kinase assay (TR-FRET, Method 1b); type: biochemical; conditions: 2 mM ATP
T1 construct: Recombinant full-length His-tagged human CDK9 and CycT1; His; purchased Invitrogen PV4131; host or cells: insect cells
T1 sequence (P50750 whole entry): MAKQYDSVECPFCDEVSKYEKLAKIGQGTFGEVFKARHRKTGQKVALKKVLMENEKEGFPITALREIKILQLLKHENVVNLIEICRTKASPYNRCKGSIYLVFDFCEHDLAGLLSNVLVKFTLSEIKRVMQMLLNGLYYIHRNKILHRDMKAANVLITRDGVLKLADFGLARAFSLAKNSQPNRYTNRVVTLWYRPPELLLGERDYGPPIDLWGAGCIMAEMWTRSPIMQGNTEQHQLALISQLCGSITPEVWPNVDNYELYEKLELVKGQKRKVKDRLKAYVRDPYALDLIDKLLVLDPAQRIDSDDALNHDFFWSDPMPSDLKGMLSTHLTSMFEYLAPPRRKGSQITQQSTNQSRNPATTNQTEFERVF
T1 sequence (O60563 whole entry partner): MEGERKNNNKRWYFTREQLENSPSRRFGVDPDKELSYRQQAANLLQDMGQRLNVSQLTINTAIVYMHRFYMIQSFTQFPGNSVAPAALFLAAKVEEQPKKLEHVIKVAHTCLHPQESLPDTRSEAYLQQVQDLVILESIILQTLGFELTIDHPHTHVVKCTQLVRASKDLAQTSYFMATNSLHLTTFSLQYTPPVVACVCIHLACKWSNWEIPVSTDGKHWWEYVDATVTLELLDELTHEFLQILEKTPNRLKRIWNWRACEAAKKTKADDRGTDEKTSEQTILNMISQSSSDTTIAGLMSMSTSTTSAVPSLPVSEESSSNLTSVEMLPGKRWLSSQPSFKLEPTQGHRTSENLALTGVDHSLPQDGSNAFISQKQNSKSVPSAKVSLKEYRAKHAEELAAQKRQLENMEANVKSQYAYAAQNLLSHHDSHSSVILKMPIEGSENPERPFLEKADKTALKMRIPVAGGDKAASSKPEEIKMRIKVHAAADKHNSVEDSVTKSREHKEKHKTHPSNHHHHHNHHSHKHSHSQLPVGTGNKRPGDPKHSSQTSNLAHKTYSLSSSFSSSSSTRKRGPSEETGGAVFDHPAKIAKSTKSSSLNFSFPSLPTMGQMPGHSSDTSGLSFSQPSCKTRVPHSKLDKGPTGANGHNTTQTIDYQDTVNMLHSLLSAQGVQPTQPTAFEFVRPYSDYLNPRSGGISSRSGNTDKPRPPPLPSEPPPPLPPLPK
Protocol: 1b. CDK9/CycT1 High ATP Kinase Assay
CDK9/CycT1-inhibitory activity of compounds of the present invention at a high ATP concentration after preincubation of enzyme and test compounds was quantified employing the CDK9/CycT1 TR-FRET assay as described in the following paragraphs.
Recombinant full-length His-tagged human CDK9 and CycT1, expressed in insect cells and purified by Ni-NTA affinity chromatography, were purchase from Invitrogen (Cat. No PV4131). As substrate for the kinase reaction biotinylated peptide biotin-Ttds-YISPLKSPYKISEG (C-terminus in amid form) was used which can be purchased e.g. from the company JERINI peptide technologies (Berlin, Germany).
For the assay 50 nl of a 100 fold concentrated solution of the test compound in DMSO was pipetted into a black low volume 384 well microtiter plate (Greiner Bio-One, Frickenhausen, Germany), 2 μl of a solution of CDK9/CycT1 in aqueous assay buffer [50 mM Tris/HCl pH 8.0, 10 mM MgCl2, 1.0 mM dithiothreitol, 0.1 mM sodium ortho-vanadate, 0.01% (v/v) Nonidet-P40 (Sigma)] were added and the mixture was incubated for 15 min at 22° C. to allow pre-binding of the test compounds to the enzyme before the start of the kinase reaction. […] The concentration of CDK9/CycT1 was adjusted depending of the activity of the enzyme lot and was chosen appropriate to have the assay in the linear range, typical concentrations were in the range of 0.5 μg/mL. The reaction was stopped by the addition of 5 μl of a solution of TR-FRET detection reagents (0.2 μM streptavidine-XL665 [Cisbio Bioassays, Codolet, France] and 1 nM anti-RB(pSer807/pSer811)-antibody from BD Pharmingen [#558389] and 1.2 nM LANCE EU-W1024 labeled anti-mouse IgG antibody [Perkin-Elmer, product no. AD0077]) in an aqueous EDTA-solution (100 mM EDTA, 0.2% (w/v) bovine serum albumin in 100 mM HEPES pH 7.5).
The resulting mixture was incubated 1 h at 22° C. to allow the formation of complex between the phosphorylated biotinylated peptide and the detection reagents. Subsequently the amount of phosphorylated substrate was evaluated by measurement of the resonance energy transfer from the Eu-chelate to the streptavidine-XL. Therefore, the fluorescence emissions at 620 nm and 665 nm after excitation at 350 nm was measured in a HTRF reader, e.g. a Rubystar (BMG Labtechnologies, Offenburg, Germany) or a Viewlux (Perkin-Elmer). The ratio of the emissions at 665 nm and at […] was taken as the measure for the amount of phosphorylated substrate. The data were normalised (enzyme reaction without inhibitor=0% inhibition, all other assay components but no enzym=100% inhibition).

[2] = molecular target: T2, CDK2/CycE (Homo sapiens, UniProt P24941); experiment: CDK2/CycE high ATP kinase assay (TR-FRET, Method 2b); type: biochemical; conditions: 2 mM ATP
T2 construct: GST; purchased ProQinase GmbH (Freiburg, Germany); host or cells: insect cells (Sf9)
Protocol: 2b. CDK2/CycE High ATP Kinase Assay:
CDK2/CycE-inhibitory activity of compounds of the present invention at 2 mM adenosine-tri-phosphate (ATP) was quantified employing the CDK2/CycE TR-FRET (TR-FRET=Time Resolved Fluorescence Resonance Energy Transfer) assay as described in the following paragraphs.
Recombinant fusion proteins of GST and human CDK2 and of GST and human CycE, expressed in insect cells (Sf9) and purified by Glutathion-Sepharose affinity chromatography, were purchase from ProQinase GmbH (Freiburg, Germany). As substrate for the kinase reaction biotinylated peptide biotin-Ttds-YISPLKSPYKISEG (C-terminus in amid form) was used which can be purchased e.g. from the company JERINI peptide technologies (Berlin, Germany).
For the assay 50 nl of a 100 fold concentrated solution of the test compound in DMSO was pipetted into a black low volume 384 well microtiter plate (Greiner Bio-One, Frickenhausen, Germany), 2 μl of a solution of CDK2/CycE in aqueous assay buffer [50 mM Tris/HCl pH 8.0, 10 mM MgCl2, 1.0 mM dithiothreitol, 0.1 mM sodium ortho-vanadate, 0.01% (v/v) Nonidet-P40 (Sigma)] were added and the mixture was incubated for 15 min at 22° C. to allow pre-binding of the test compounds to the enzyme before the start of the kinase reaction. Then the kinase reaction was started by the addition of 3 μl of a solution ATP (3.33 mM=>final conc. in the 5 μl assay volume is 2 mM) and substrate (1.25 μM=>final conc. in the 5 μl assay volume is 0.75 μM) in assay buffer and the resulting mixture was incubated for a reaction time of 25 min at 22° C. The concentration of CDK2/CycE was adjusted depending of the activity of the enzyme lot and was chosen appropriate to have the assay in the linear range, typical concentrations were in the range of 15 ng/ml. The reaction was stopped by the addition of 5 μl of a solution of TR-FRET detection reagents (0.2 μM streptavidine-XL665 [Cisbio Bioassays, Codolet, France] and 1 nM anti-RB(pSer807/pSer811)-antibody from BD Pharmingen [#558389] and 1.2 nM LANCE EU-W1024 labeled anti-mouse IgG antibody [Perkin-Elmer, product no. AD0077, as an alternative a Terbium-cryptate-labeled anti-mouse IgG antibody from Cisbio Bioassays can be used]) in an aqueous EDTA-solution (100 mM EDTA, 0.2% (w/v) bovine serum albumin in 100 mM HEPES pH 7.5).
The resulting mixture was incubated 1 h at 22° C. to allow the formation of complex between the phosphorylated biotinylated peptide and the detection reagents. Subsequently the amount of phosphorylated substrate was evaluated by measurement of the resonance energy transfer from the Eu-chelate to the streptavidine-XL. Therefore, the fluorescence emissions at 620 nm and 665 nm after excitation at 350 nm were measured in a TR-FRET reader, e.g. a Rubystar (BMG Labtechnologies, Offenburg, Germany) or a Viewlux (Perkin-Elmer). The ratio of the emissions at 665 nm and at […] was taken as the measure for the amount of phosphorylated substrate. The data were normalised (enzyme reaction without inhibitor=0% inhibition, all other assay components but no enzym=100% inhibition).

[3] = molecular target: T3, human PTEFb (CDK9/Cyclin T1) (Homo sapiens, UniProt P50750); experiment: Surface Plasmon Resonance PTEFb (Method 8); type: binding; conditions: 37° C., experimental parameters E
T3 construct: purchased ProQinase, Freiburg, Germany
T3 sequence (P50750 whole entry): as the sequence (P50750 whole entry) above
T3 sequence (O60563 whole entry partner): as the sequence (O60563 whole entry partner) above

[4] = in vivo; cited from earlier work

| IC50 ([1]; Method 1b) [nM] | Selectivity high ATP CDK9 over high ATP CDK2: IC50 (high ATP CDK2)/IC50 (high ATP CDK9) ([1]; Methods 1b and 2b) | IC50 [2] [nM] | Target resident time ([3]; 1/koff) | koff ([3]; read-out: Dissociation rate constant koff) [s⁻¹] | SMILES | duration of protection against bronchospasms [4] |
| --- | --- | --- | --- | --- | --- | --- |
| 3.3 | 224 | 742 | 14.7* min | 0.00113 | CS(=N)(=O)Cc1cc2cc(c1)Nc1ncc(F)c(n1)-c1ccc(F)cc1OCCCCN2 (racemic) [Example 25, (rac)-16,20-difluoro-9-[(S-methylsulfonimidoyl)methyl]-3,4,5,6-tetrahydro-2H,12H-13,17-(azeno)-11,7-(metheno)-1,6,12,14-benzoxatriazacyclononadecine] | – |
| – | – | – | – | – | C[N+]1(C)[C@@H]2C[C@@H](OC(=O)C(O)(c3cccs3)c3cccs3)C[C@H]1[C@@H]1O[C@@H]12 [tiotropium] | more than 6 hours |
